Values joined by “and” are separate entries in the source; they are usually repeats but may differ in a detail not shown here. Identical values can stand only once.
What was measured:
Assay type in all cases: in vivo, rat
SHR male rats = assay: Hypotensive effect: blood pressure by carotid cannula and pressure transducer after administration to SHR; details: for duration of the hypotensive effect from the administration / sustained hypotension at the highest: 1 mg/kg via cannula from external carotid artery
Procedure: A group comprising three SHR male rats (12˜14 weeks age; body weight: 258˜310 g) that are pathological model animals of hypertension was used. Ab mix prepared in Example 1, P mix prepared in Example 2 and dissolved in a physiological saline, and anti-renin neutralizing antibody and captopril, which were the drugs used for comparative study, were intravenously administered at the dose of 0.44 mg/kg, 0.6 mg/kg, 0.12 mg/kg and 100 mg/kg, respectively. Measurement of blood pressure was carried out in such a manner that a cannula inserted into common carotid artery and external carotid artery was connected to a pressure transducer (P23XL; Gould Electronics) and introduced into a pressure processor signal conditioner (Gould Electronics), followed by carrying out measurement every ten minutes until 1 hour from administration of the test substance and every one hour thereafter and the data were recorded on a thermal array recorder (RS 3400; Gould Electronics). […]
A test was carried out for p 1 (pf 1-11), p 2 (pf 5-19) and p 3 (pf 27-41) prepared in Example 2 in the same manner as in Experimental Example 1 using 2 or 4 cases of SHR. The result was that, in the case of administration of 2 mg/kg of p 1, a transient hypertensive action of around 6% was noted immediately after administration, that recovered after 5 minutes from administration, then a hypotensive gradually took place thereafter to an extent of 6% at the highest and a sustained effect was confirmed until 24th hour. […] In the case of administration of 2 mg/kg of p 2, a transient hypotension of around 35% was noted immediately after administration, it recovered at 5 minutes after administration and, after that, a sustained hypotensive action was confirmed until 24th hour to an extent of around 6% at the highest. […] In the case of administration of 10 mg/kg, a hypotension of 7% was noted after 2 hours and, until 24th hour, a sustained hypotensive action where 11% was the highest was confirmed. […]

SHR [1] = assay: Weight of heart and kidney after 14 days of administration to SHR; details: 1.6 mg/kg intravenously once daily for 14 days
Procedure: The p 1c (pf 5-11) prepared in Example 2 was intravenously administered once daily for consecutive 14 days at the dose of 1.6 mg/kg to a group comprising 4 SHRs. On the 14th day, the rats were killed by bleeding, followed by excising heart and kidney to measure their weights. The result is shown in Table 1 in terms of weight of the organ per 100 g of body weight.

SHR [2] = assay: Weight of arteries after 14 days of administration to SHR; details: 1.6 mg/kg intravenously once daily for 14 days
Procedure: The p 1c (pf 5-11) prepared in Example 2 was intravenously administered once daily for consecutive 14 days at the dose of 1.6 mg/kg to a group comprising 4 SHRs. On the 14th day, the rats were killed by bleeding, followed by excising heart and kidney to measure their weights. The result is shown in Table 1 in terms of weight of the organ per 100 g of body weight. […] Weight of each artery was calculated in terms of weight per each area, followed by further converting the calculated value into the value per body weight of each rat and the results were compared and shown in Table 2.

## C[C@H](CS)C(=O)N1CCC[C@H]1C(=O)O [captopril, reference compound]
SHR male rats; SHR, 100 mg/kg intravenously
  hypotensive action at the 24th hour (completion of the experiment): no hypotensive action was noted
  maximum hypotension (at the highest) until the 6th hour from the administration: 31%

## D-His-Pro-Phe-His-Leu-ψ-[CH2NH]-Leu-Val-Tyr [H 6137, reference compound]
SHR male rats
  duration of the hypotensive effect from the administration: tendency of disappearance of the effect
SHR male rats; at 3~8 hours after administration
  sustained hypotension at the highest: 9%

## p 1: rat prorenin profragment peptide pf 1-11 (SEQ ID NO: 9) (LPTDTASFGRI; listed as Rattus norvegicus)
SHR male rats; SHR, 2 mg/kg intravenously
  transient hypertension immediately after administration: around 6%
SHR male rats; SHR, 2 mg/kg intravenously, until 24th hour
  sustained hypotension at the highest after recovery of the transient change: 6%
SHR male rats; SHR, 10 mg/kg intravenously
  hypotension at 6 hours after administration: about 7%

## p 1a: rat prorenin profragment peptide pf 1-4 (SEQ ID NO: 10) (LPTD; listed as Rattus norvegicus)
SHR male rats; SHR, 10 mg/kg intravenously
  sustained hypotension at the highest until 24th hour: 13%
  transient hypertension immediately after administration: 13%

## p 1b: rat prorenin profragment peptide pf 1-7 (SEQ ID NO: 11) (LPTDTAS; listed as Rattus norvegicus)
SHR male rats; SHR, 10 mg/kg intravenously
  sustained hypotension at the highest until 24th hour: 13%
  transient hypertension immediately after administration: 17%

## p 1c: rat prorenin profragment peptide pf 5-11 (SEQ ID NO: 12) (TASFGRI; listed as Rattus norvegicus)
SHR male rats; SHR, 10 mg/kg intravenously
  sustained hypotension at the highest until 24th hour: 16%
  transient hypertension immediately after administration: 21%
SHR [1]
  Weight of Organ, Heart, Mean Value: 0.39 g/100 g body weight
  Weight of Organ, Left Kidney, Mean Value: 0.35 g/100 g body weight
  Weight of Organ, Right Kidney, Mean Value: 0.34 g/100 g body weight
SHR [1]; 1.6 mg/kg
  Weight of Organ, Heart, individual rats: 0.37 g/100 g body weight and 0.4 g/100 g body weight (2×) and 0.39 g/100 g body weight
  Weight of Organ, Left Kidney, individual rats: 0.34 g/100 g body weight and 0.35 g/100 g body weight (3×)
  Weight of Organ, Right Kidney, individual rats: 0.34 g/100 g body weight and 0.35 g/100 g body weight (2×) and 0.33 g/100 g body weight
SHR [1]; compared with physiological saline
  effect on hypertrophy of heart and kidney: suppresses hypertrophy of heart and kidney
SHR [2]
  Weight of Artery, Femoral Artery, Mean Value: 0.00089 mg/mm^2/g body weight
  Weight of Artery, Pulmonary Artery, Mean Value: 0.00081 mg/mm^2/g body weight
  Weight of Artery, Superior Mesenteric Artery, Mean Value: 0.00096 mg/mm^2/g body weight
SHR [2]; 1.6 mg/kg
  Weight of Artery, Femoral Artery, individual rats: 0.00068 mg/mm^2/g body weight and 0.00094 mg/mm^2/g body weight and 0.00106 mg/mm^2/g body weight and 0.00087 mg/mm^2/g body weight
  Weight of Artery, Pulmonary Artery, individual rats: 0.00067 mg/mm^2/g body weight and 0.00087 mg/mm^2/g body weight and 0.00088 mg/mm^2/g body weight and 0.00082 mg/mm^2/g body weight
  Weight of Artery, Superior Mesenteric Artery, individual rats: 0.00094 mg/mm^2/g body weight and 0.00095 mg/mm^2/g body weight and 0.00096 mg/mm^2/g body weight and 0.001 mg/mm^2/g body weight
SHR [2]; compared with control group
  effect on thickening of artery (remodeling of blood vessel): suppresses the thickening of artery

## p 2a: rat prorenin profragment peptide pf 12-19 (SEQ ID NO: 13) (LLKKMPSV; listed as Rattus norvegicus)
SHR male rats
  duration of the hypotensive effect from the administration: ≥ 12 h
SHR male rats; at 5~8 hours after administration
  sustained hypotension at the highest: 11%
SHR male rats; SHR, 1 mg/kg intravenously
  sustained hypotension at the highest until 24 hours: 14%
  transient hypertension immediately after administration: 6%

## p 2b: rat prorenin profragment peptide pf 11-15 (SEQ ID NO: 14) (ILLKK; listed as Rattus norvegicus)
SHR male rats; SHR, 1 mg/kg intravenously
  sustained hypotension at the highest until 24 hours: The same effect was achieved
